Measured values from the supplement of paper PMC10307832.

Assays:
Experiment in all cases: relative viability (nuclei count vs DMSO), 5 days (fraction); higher = more cells survive
[1] = compound: CC1=CC=C(C=C1)C(=O)CN2C3=C(CCCC3)SC2=N [Pifithrin_alpha] + Cc1cc(Nc2cc(N3CCN(C)CC3)nc(Sc3ccc(NC(=O)C4CC4)cc3)n2)n[nH]1 [Tozasertib] (partner 0.1 µM)
How it was run: (§1)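 Medians of duplicate plates are given as relative viability. That measure is the nuclei count in treated wells divided by the count in vehicle wells. Counts were taken on 4× images of lung cancer cell lines in 1536-well plates, 5 days after pin-tool dosing the day after seeding with one drug alone or a fixed anchor-drug dose plus five library-drug doses (not always all listed) in √10 steps.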

Bemcentinib + Foretinib = compound: Nc1nc(Nc2ccc3c(c2)CC[C@@H](N2CCCC2)CC3)nn1-c1cc2c(nn1)-c1ccccc1CCC2 [Bemcentinib] + COc1cc2c(Oc3ccc(NC(=O)C4(C(=O)Nc5ccc(F)cc5)CC4)cc3F)ccnc2cc1OCCCN1CCOCC1 [Foretinib] (partner 0.25 µM)
How it was run: as §1

[2] = compound: CC1=CC=C(C=C1)C(=O)CN2C3=C(CCCC3)SC2=N [Pifithrin_alpha] + CC(=O)Nc1cccc(-n2c(=O)n(C3CC3)c(=O)c3c(Nc4ccc(I)cc4F)n(C)c(=O)c(C)c32)c1 [Trametinib] (partner 0.02 µM)
How it was run: as §1

[3] = compound: CC1=CC=C(C=C1)C(=O)CN2C3=C(CCCC3)SC2=N [Pifithrin_alpha] + COc1cc2c(Oc3ccc(NC(=O)C4(C(=O)Nc5ccc(F)cc5)CC4)cc3F)ccnc2cc1OCCCN1CCOCC1 [Foretinib] (partner 0.25 µM)
How it was run: as §1

Cell Line	relative viability ([1]; first compound 1 µM)	relative viability ([1]; first compound 3.162 µM)	relative viability ([1]; first compound 10 µM)	relative viability ([1]; first compound 31.62 µM)	relative viability ([1]; first compound 100 µM)	relative viability (Bemcentinib + Foretinib; first compound 0.04 µM)	relative viability (Bemcentinib + Foretinib; first compound 0.1265 µM)	relative viability (Bemcentinib + Foretinib; first compound 0.4 µM)	relative viability (Bemcentinib + Foretinib; first compound 1.265 µM)	relative viability (Bemcentinib + Foretinib; first compound 4 µM)	relative viability ([2]; first compound 1 µM)	relative viability ([2]; first compound 3.162 µM)	relative viability ([2]; first compound 10 µM)	relative viability ([2]; first compound 31.62 µM)	relative viability ([2]; first compound 100 µM)	relative viability ([3]; first compound 1 µM)	relative viability ([3]; first compound 3.162 µM)	relative viability ([3]; first compound 10 µM)	relative viability ([3]; first compound 31.62 µM)	relative viability ([3]; first compound 100 µM)
NCI-H2170	0.624	0.704	0.602	0.541	0.462	0.971	1.16	1.02	1.03	0.993	0.994	0.987	0.836	0.794	0.903	0.985	1.02	0.988	0.931	0.952
NCI-H441	0.483	0.652	0.401		0.451	1.16	1.05	0.892	0.917	0.875	0.421	0.474	0.409		0.333	0.974	1.17	1.04		0.925
NCI-H2087	0.245	0.422	0.206		0.152	1.08	1.32	1.14	1.21	0.937	0.178	0.196	0.169	0.183	0.165	1.1	1.21	1.07		1.03
RERF-LC-KJ	0.498	0.412	0.308	0.253	0.289	0.943	0.941	0.919	0.829	0.984	0.861	0.774	0.693	0.747	0.586	0.886	0.829	0.792	0.813	0.786
NCI-H1437	0.502	0.478	0.403	0.364	0.409	1.28	1.26	1.33	1.21	1.3	0.532	0.491	0.355	0.336	0.264	1.4	1.33	1.21	0.794	0.93
NCI-H1651	0.678	0.592	0.403	0.33	0.384	0.824	0.928	0.812	0.856	1.14	0.833	0.821	0.863	0.851	0.958	0.933	0.775	0.787	0.583	0.7
PC-14		0.576	0.551	0.396	0.291	1.07	0.907	1	0.959	1.02	0.731	0.654	0.547	0.319	0.383	1.09	0.998	1.03	0.791	0.94
NCI-H1666	0.606	0.596	0.474	0.507	0.515	0.959	1.26	1.06	0.856	0.911	0.8	0.737	0.791	0.706	0.494	0.969	0.933	0.867	0.781	0.763
NCI-H661	0.359	0.354	0.358	0.355	0.346	0.969	1.04	1.01	0.981	0.986	0.561	0.603	0.555	0.462	0.503	0.996	1	0.981	0.94	0.904
LK-2	0.188	0.134	0.146		0.152	1.51		1.29	1.35	1.49	0.811	0.856	0.684	0.601	0.687	1.18	1.64	1.48		1.62
PC-3 [JPC-3]	0.943	0.896	0.629	0.635	0.704	1.07	1.05	1.1	0.992	1.03		0.648		0.614	0.487	1.05	0.991	0.927	0.833	0.931
LC-2-ad		0.357	0.379		0.311	0.881	0.964	1.01	0.927	0.969	0.973	0.945	0.912	0.757	0.811		0.902	0.904		0.871
ChaGo-K-1	0.218	0.219	0.204	0.226	0.192	0.93	1.04	0.899	0.951	0.906	0.889	0.936	0.889	0.589	0.862	0.917	0.985	0.871	0.828	0.814
NCI-H460	0.397	0.485	0.0522	0.0525	0.126	1.01	1.22	1.1	1.07	1	0.0943	0.075	0.155	0.0707	0.103	1.06	0.974	0.933	0.492	0.631
